From the supplement of paper PMC11061612

What was measured:
[1] = test system: IM-95 (Gastric Carcinoma); assay: Bliss excess, mean over the matrix (fraction); higher = more synergy;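 also: after 72 h of two-drug dosing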
In short: (§1)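 Cell lines grown in DMEM/F12 or RPMI with 10% FBS were plated in 1536-well plates and held 24 hours at 37°C, 5% CO2 before 72 hours of exposure to two-drug dose matrices, with DMSO typically at 0.2%. CellTiter-Glo 2.0 luminescence gave viability, which was converted to inhibition. Vehicle wells were set to 0 and blank wells to 1. Combination Emax is the second-highest inhibition in the matrix, and Bliss excess is the observed combination effect minus the expected EA + EB − EA·EB, where EA and EB are the single-agent effects.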

[2] = test system: COR-L279 (Small Cell Lung Carcinoma); assay: combination Emax (second highest fraction inhibited in the dose matrix, 72 h); higher = more inhibition; extreme values may be limits of the assay
In short: as §1

[3] = test system: CW-2 (Colorectal Carcinoma); assay: as above
In short: as §1

[4] = test system: DAN-G (Pancreatic Carcinoma); assay: as above
In short: as §1

[5] = test system: DMS-114 (Small Cell Lung Carcinoma); assay: as above
In short: as §1

[6] = test system: ESO51 (Esophageal Adenocarcinoma); assay: as above
In short: as §1

[7] = test system: HCC1187 (Breast Carcinoma); assay: as above
In short: as §1

[8] = test system: KYSE-270 (Esophageal Squamous Cell Carcinoma); assay: as above
In short: as §1

M059J (Glioblastoma) = assay: as above
In short: as §1

[9] = test system: MN-60 (B-Lymphoblastic Leukemia); assay: as above
In short: as §1

NCI-H2731 (Mesothelioma) = assay: as above
In short: as §1

[10] = test system: NCI-H3122 (Lung Adenocarcinoma); assay: as above
In short: as §1

[11] = test system: NCI-H661 (Non-Small Cell Lung Carcinoma); assay: as above
In short: as §1

RD (Rhabdomyosarcoma) = assay: as above
In short: as §1

[12] = test system: SK-GT-2 (Gastric Carcinoma); assay: as above
In short: as §1

[13] = test system: SK-GT-4 (Esophageal Adenocarcinoma); assay: as above
In short: as §1

[14] = test system: SNU-398 (Hepatocellular Carcinoma); assay: as above
In short: as §1

[15] = test system: SU-DHL-5 (B-Cell Non-Hodgkin's Lymphoma); assay: as above
In short: as §1

[16] = test system: T-T (Esophageal Squamous Cell Carcinoma); assay: as above
In short: as §1

[17] = test system: VMRC-RCZ (Kidney Carcinoma); assay: as above
In short: as §1

| Structure (SMILES) | Bliss excess [1] | combination Emax [2] | combination Emax [3] | combination Emax [4] | combination Emax [5] | combination Emax [6] | combination Emax [7] | combination Emax [8] | combination Emax (M059J (Glioblastoma)) | combination Emax [9] | combination Emax (NCI-H2731 (Mesothelioma)) | combination Emax [10] | combination Emax [11] | combination Emax (RD (Rhabdomyosarcoma)) | combination Emax [12] | combination Emax [13] | combination Emax [14] | combination Emax [15] | combination Emax [16] | combination Emax [17] |
| --- | --- | --- | --- | --- | --- | --- | --- | --- | --- | --- | --- | --- | --- | --- | --- | --- | --- | --- | --- | --- |
| Cc1c2c(nn1C)CSCc1cc(n(C)n1)CSc1cc(c3ccccc3c1)OCCCc1c(C(=O)O)n(C)c3c-2c(Cl)ccc13 [AZD5991] + CC1(C)CCC(CN2CCN(c3ccc(C(=O)NS(=O)(=O)c4ccc(NCC5CCOCC5)c([N+](=O)[O-])c4)c(Oc4cnc5[nH]ccc5c4)c3)CC2)=C(c2ccc(Cl)cc2)C1 [Venetoclax] (first compound max 1 µM, 7x7, partner max 1 µM) | 0.0119 | 0.244 | 0.151 | 0.247 | 0.911 | 0.187 | 0.997 | 0.822 | 0.347 | 0.323 | 0.0671 | 0.275 | 0.561 | 0.553 | 0.198 | 0.2 | 1 | 1 | 0.908 | 0.21 |
| Cc1c2c(nn1C)CSCc1cc(n(C)n1)CSc1cc(c3ccccc3c1)OCCCc1c(C(=O)O)n(C)c3c-2c(Cl)ccc13 [AZD5991] + CCN(CCO)CCCOc1ccc2c(Nc3cc(CC(=O)Nc4cccc(F)c4)[nH]n3)ncnc2c1 [AZD2811] (first compound max 1 µM, 7x7, partner max 1 µM) | 0.0605 | 0.787 | 0.158 | 0.702 | 0.587 | 0.195 | 1 | 0.926 | 0.523 | 0.206 | 0.273 | 0.918 | 0.686 | 0.546 | 0.204 | 0.26 | 0.991 | 1 | 0.95 | 0.221 |
| Cc1c2c(nn1C)CSCc1cc(n(C)n1)CSc1cc(c3ccccc3c1)OCCCc1c(C(=O)O)n(C)c3c-2c(Cl)ccc13 [AZD5991] + CN(C)CCCOc1ccc(-c2ccc3ncc4c(c3c2)n(C2CCOCC2)c(=O)n4C)cn1 [AZD0156] (first compound max 1 µM, 7x7, partner max 1 µM) | -0.0198 | 0.496 | 0.154 | 0.48 | 0.548 | 0.205 | 0.988 | 0.542 | 0.338 | 0.177 | 0.193 | 0.405 | 0.505 | 0.603 | 0.182 | 0.277 | 1 | 1 | 0.901 | 0.21 |
| Cc1c2c(nn1C)CSCc1cc(n(C)n1)CSc1cc(c3ccccc3c1)OCCCc1c(C(=O)O)n(C)c3c-2c(Cl)ccc13 [AZD5991] + C[C@@H](Nc1cc(F)cc(F)c1)c1cc(C(=O)N(C)C)cc2c(=O)cc(N3CCOCC3)oc12 [AZD8186] (first compound max 1 µM, 7x7, partner max 3 µM) | -0.0348 | 0.624 | 0.139 | 0.36 | 0.61 | 0.217 | 0.993 | 0.622 | 0.421 | 0.343 | 0.151 | 0.352 | 0.6 | 0.521 | 0.179 | 0.288 | 0.995 | 1 | 0.915 | 0.287 |
| Cc1c2c(nn1C)CSCc1cc(n(C)n1)CSc1cc(c3ccccc3c1)OCCCc1c(C(=O)O)n(C)c3c-2c(Cl)ccc13 [AZD5991] + Cc1cc2ncnn2cc1Nc1ncc2c(n1)n(C1CCOCC1)c(=O)n2C [AZD7648] (first compound max 1 µM, 7x7, partner max 10 µM) | -0.0615 | 0.468 | 0.223 | 0.483 | 0.692 | 0.127 | 1 | 0.508 | 0.468 | 0.15 | 0.576 | 0.442 | 0.419 | 0.521 | 0.192 | 0.327 | 1 | 1 | 0.926 | 0.191 |
| Cc1c2c(nn1C)CSCc1cc(n(C)n1)CSc1cc(c3ccccc3c1)OCCCc1c(C(=O)O)n(C)c3c-2c(Cl)ccc13 [AZD5991] + Cn1cnc2c(F)c(Nc3ccc(Br)cc3Cl)c(C(=O)NOCCO)cc21 [Selumetinib] (first compound max 1 µM, 7x7, partner max 3 µM) | 0.0906 | 0.18 | 0.314 | 0.84 | 0.43 | 0.361 | 0.986 | 0.76 | 0.264 | 0.323 | 0.151 | 0.881 | 0.462 | 0.625 | 0.154 | 0.574 | 1 | 1 | 0.936 | 0.214 |
| C[C@@H]1COCCN1c1cc(C2([S@](C)(=N)=O)CC2)nc(-c2ccnc3[nH]ccc23)n1 [AZD6738] + O=C(c1cc(Cc2n[nH]c(=O)c3ccccc23)ccc1F)N1CCN(C(=O)C2CC2)CC1 [Olaparib] (first compound max 10 µM, 7x7, partner max 10 µM) | 0.031 | 0.927 | 0.473 | 0.643 | 0.528 | 0.555 | 0.532 | 0.794 | 0.684 | 0.528 | 0.304 | 0.726 | 0.54 | 0.332 | 0.355 | 0.51 | 0.354 | 1 | 0.448 | 0.319 |
| Cc1cc2ncnn2cc1Nc1ncc2c(n1)n(C1CCOCC1)c(=O)n2C [AZD7648] + C=CCn1c(=O)c2cnc(Nc3ccc(N4CCN(C)CC4)cc3)nc2n1-c1cccc(C(C)(C)O)n1 [AZD1775] (first compound max 10 µM, partner max 1 µM) | 0.0212 | 0.484 | 0.391 | 0.631 | 0.385 | 0.576 | 0.304 | 0.594 | 0.522 | 0.124 | 0.416 | 0.744 | 0.649 | 0.32 | 0.74 | 0.474 | 0.533 | 1 | 0.461 | 0.393 |
| Cc1cc2ncnn2cc1Nc1ncc2c(n1)n(C1CCOCC1)c(=O)n2C [AZD7648] + CCN(CCO)CCCOc1ccc2c(Nc3cc(CC(=O)Nc4cccc(F)c4)[nH]n3)ncnc2c1 [AZD2811] (first compound max 10 µM, 7x7, partner max 1 µM) | 0.0835 | 0.757 | 0.164 | 0.554 | 0.306 | 0.227 | 0.824 | 0.183 | 0.457 | 0.185 | 0.409 | 0.548 | 0.308 | 0.214 | 0.198 | 0.389 | 0.363 | 0.993 | 0.276 | 0.276 |
| Cc1cc2ncnn2cc1Nc1ncc2c(n1)n(C1CCOCC1)c(=O)n2C [AZD7648] + CN(C)CCCOc1ccc(-c2ccc3ncc4c(c3c2)n(C2CCOCC2)c(=O)n4C)cn1 [AZD0156] (first compound max 10 µM, 7x7, partner max 1 µM) | 0.0121 | 0.4 | 0.207 | 0.597 | 0.293 | 0.192 | 0.104 | 0.143 | 0.321 | 0.201 | 0.274 | 0.423 | 0.237 | 0.195 | 0.159 | 0.315 | 0.194 | 0.66 | 0.246 | 0.256 |
| Cc1cc2ncnn2cc1Nc1ncc2c(n1)n(C1CCOCC1)c(=O)n2C [AZD7648] + C[C@@H]1COCCN1C2=NC(=NC(=C2)C3(CC3)[S@](=N)(=O)C)C4=C5C=CNC5=NC=C4 [AZD6738] (first compound max 10 µM, 7x7, partner max 10 µM) | 0.0163 | 0.677 | 0.461 | 0.643 | 0.54 | 0.744 | 0.278 | 0.717 | 0.514 | 0.427 | 0.381 | 0.751 | 0.56 | 0.246 | 0.216 | 0.576 | 0.46 | 1 | 0.531 | 0.388 |
| Cc1cc2ncnn2cc1Nc1ncc2c(n1)n(C1CCOCC1)c(=O)n2C [AZD7648] + O=C(c1cc(Cc2n[nH]c(=O)c3ccccc23)ccc1F)N1CCN(C(=O)C2CC2)CC1 [Olaparib] (first compound max 10 µM, 7x7, partner max 10 µM) | -0.0303 | 0.858 | 0.0683 | 0.531 | 0.236 | 0.224 | 0.294 | 0.212 | 0.431 | 0.175 | 0.14 | 0.281 | 0.215 | 0.161 | 0.0892 | 0.26 | 0.134 | 0.96 | 0.0568 | 0.129 |
| NC1(C(=O)N[C@@H](CCO)c2ccc(Cl)cc2)CCN(c2ncnc3[nH]ccc23)CC1 [Capivasertib] + CC(=O)c1c(C)c2cnc(Nc3ccc(N4CCNCC4)cn3)nc2n(C2CCCC2)c1=O [Palbociclib] (first compound max 10 µM, 7x7, partner max 10 µM) | 0.0182 | 0.688 | 0.445 | 0.355 | 0.284 | 0.356 | 0.257 | 0.27 | 0.338 | 0.583 | 0.361 | 0.701 | 0.368 | 0.463 | 0.248 | 0.588 | 0.472 | 1 | 0.344 | 0.401 |
